Results from PMC6175931, “Structural insights into the electron/proton transfer pathways in the quinol:fumarate reductase from Desulfovibrio gigas” (Scientific Reports, 2018).

Target: T1, quinol:fumarate reductase (QFR), site in subunit A (FAD-binding protein) (Megalodesulfovibrio gigas, UniProt T2GB49)
T1 construct: gene fdrA; native, purified from D. gigas membranes in DDM; A2B2C2 homo-dimer; subunit A 627 residues (1-622 built), B 264, C 218; with Fumarate reductase iron-sulfur subunit; Fumarate reductase cytochrome b subunit
T1 sequence (T2GB49 1-627): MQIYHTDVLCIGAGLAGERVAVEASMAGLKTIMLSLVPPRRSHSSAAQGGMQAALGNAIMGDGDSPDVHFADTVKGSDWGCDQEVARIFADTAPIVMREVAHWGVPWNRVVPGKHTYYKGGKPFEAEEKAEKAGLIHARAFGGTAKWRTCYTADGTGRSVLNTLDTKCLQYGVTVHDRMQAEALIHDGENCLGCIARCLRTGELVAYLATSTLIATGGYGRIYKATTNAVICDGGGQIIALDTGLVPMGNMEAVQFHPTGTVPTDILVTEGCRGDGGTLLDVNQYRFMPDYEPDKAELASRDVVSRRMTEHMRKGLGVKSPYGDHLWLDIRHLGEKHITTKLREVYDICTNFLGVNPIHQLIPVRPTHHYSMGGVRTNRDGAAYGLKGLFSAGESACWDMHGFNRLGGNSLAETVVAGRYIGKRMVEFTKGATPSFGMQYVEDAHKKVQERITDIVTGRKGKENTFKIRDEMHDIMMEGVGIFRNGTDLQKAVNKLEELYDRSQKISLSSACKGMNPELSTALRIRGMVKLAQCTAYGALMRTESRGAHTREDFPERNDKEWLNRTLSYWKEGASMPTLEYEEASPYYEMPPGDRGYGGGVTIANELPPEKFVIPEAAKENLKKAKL
T1 sequence (T2G9X8 1-264 partner): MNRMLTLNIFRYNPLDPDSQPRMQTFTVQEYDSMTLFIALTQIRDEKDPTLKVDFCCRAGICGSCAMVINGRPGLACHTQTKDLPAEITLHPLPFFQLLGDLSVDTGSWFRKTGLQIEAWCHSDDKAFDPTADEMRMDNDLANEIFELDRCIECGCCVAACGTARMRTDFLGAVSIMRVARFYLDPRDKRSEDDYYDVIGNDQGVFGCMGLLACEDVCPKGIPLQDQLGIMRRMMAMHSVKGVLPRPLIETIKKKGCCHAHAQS
T1 sequence (T2GAT5 1-218 partner): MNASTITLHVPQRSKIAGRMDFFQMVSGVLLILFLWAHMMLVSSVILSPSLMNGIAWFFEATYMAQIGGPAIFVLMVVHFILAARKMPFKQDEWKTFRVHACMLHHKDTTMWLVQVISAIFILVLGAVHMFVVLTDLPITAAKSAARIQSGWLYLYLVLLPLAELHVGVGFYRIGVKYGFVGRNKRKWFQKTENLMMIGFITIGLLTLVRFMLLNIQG
Assay: X-ray crystal structure, […] Å
Conditions: crystals at pH 8.5

| SMILES | X-ray crystal structure, 3.6 Å (covalent, C8M methyl of flavin to His-A43) | X-ray crystal structure, 3.6 Å (fumarate site near the FAD in subunit A) |
| --- | --- | --- |
| Cc1cc2nc3c(=O)[nH]c(=O)nc-3n(C[C@H](O)[C@H](O)[C@H](O)COP(=O)(O)OP(=O)(O)OC[C@H]3O[C@@H](n4cnc5c(N)ncnc54)[C@H](O)[C@@H]3O)c2cc1C [FAD, flavin adenine dinucleotide] | FAD binds to the FAD-binding domain through a covalent bond with residue His-A43 |  |
| O=C(O)/C=C/C(=O)O [fumarate] |  | A fumarate molecule is also observed near the FAD in the A subunit |
